Columns and labels:
[1] = system: patients with at least one eye with dry AMD and GA; experiment: Example 2: macular area of photoreceptor loss (tEZa) over time, linear mixed effects model; assay type: in vivo, human
Procedure: Data for this example was collected as part of the clinical study described above in Example 1. […] The primary analysis of rate of change in the macular area of photoreceptor loss over time was conducted using a linear mixed effects model assuming time as continuous and linear. […] Correlation between the repeated measurements of the same subject were accounted for by allowing an unstructured covariance matrix for the residuals. The outcome was the change in macular area of photoreceptor loss from baseline to each time point (time points being t=0, t=12 weeks, t=24 weeks, t=36 weeks and t=48 weeks) during the treatment period through week 48.

[2] = general statement on formulation
[3] = system: patients with at least one eye with dry AMD and GA
Procedure: Study design. In this Phase 2, randomized, placebo-controlled, double-masked, multicenter, safety and efficacy trial (ClinicalTrials.gov identifier NCT03891875), patients with at least one eye with dry AMD and GA were included. Visit 1 (screening visit) was performed no more than 14 days before the baseline visit (visit 2, day 1) (FIG. 1). […] (Allingham 2022; Mettu 2022). Patients were treated for 48 weeks, with assessments at day 1 and weeks 4, 8, 12, 24, 36, and 48 (visits 2 to 8) plus a final safety follow-up visit 4 weeks after the last day of study treatment (week 52; visit 9). Patient diaries and vial counts were used and reviewed to verify compliance.
Safety/tolerability evaluations included assessment of the incidence and severity of adverse events/adverse device effects, incidence of conversion to MNV, changes from baseline in vital sign measurements, electrocardiograms, clinical evaluations, clinical laboratory evaluations, slit lamp examination, and dilated fundus examination.
Statistical analysis. Safety and efficacy variables were summarized descriptively. The safety population included all patients receiving ≥1 dose of investigational product. […] Patients were analyzed according to the actual treatment received. A sample size of 180 patients provides ≥80% power to detect a 5-letter (1-line) change from baseline mean difference in LL BCVA between drug and placebo, assuming a standard deviation of 11 letters, at a two-sided alpha-level of 0.10, and proves approximately 80% power to detect a 30% difference in the change from baseline in square root transformed total GA area by OCT between drug and placebo, assuming a standard deviation of 0.2 mm/year, and an average change of 0.33 mm/year, at a two-sided alpha-level of 0.1.

[4] = system: patients with at least one eye with dry AMD and GA; experiment: Phase 2 trial: ellipsoid zone integrity (tEZa, pEZa) and GA on OCT; assay type: in vivo, human
From the text: (§1) Study design. […] (Allingham 2022; Mettu 2022).
(§2) Study objectives and endpoints. The primary efficacy endpoints were changes from baseline in LL BCVA and in square root converted GA area as measured by OCT. Secondary efficacy endpoints included changes in ellipsoid zone integrity, categorical changes from baseline in LL-BCVA, changes from baseline in LL reading acuity (LLRA), BCVA, and GA area as measured by FAF. Additional predefined endpoints included change in center 1-mm and 2-mm mean EZ-RPE thickness, National Eye Institute Visual Function Questionnaire (VFQ-39) score, RA at standard light, visual function by the Low-Luminance Questionnaire (LLQ). For efficacy endpoints, the unit of analysis was study eye; in cases where both eyes were eligible for analysis, the study eye was the eye with the worse LL BCVA as determined at baseline (right eye was the study eye for equal LL BCVA). Ellipsoid zone integrity was measured as previously described on OCT utilizing a machine learning enhanced multi-layer segmentation platform that provided panmacular assessment of the EZ and RPE location (Sirici, et al., Ophthamol Surg Lasers Imaging Retina, 2022; Itoh, et al, Br J Ophthamol, 2016).
Statistical analysis. Safety and efficacy variables were summarized descriptively. […] Patients were analyzed according to the actual treatment received.
For continuous data, a mixed model for repeated measures was used for each eye separately (study eye), with fixed effects for treatment arm, study visit, the treatment arm-by-visit interaction, baseline as a covariate, a baseline-by-visit interaction, a random effect for subject, using an unstructured covariance structure. The primary time point for analysis was week 48 (end of treatment visit) and the mITT population was the primary analysis population using observed data. A family-wise alpha level of 0.1 was maintained for the primary endpoint family, using Hochberg's procedure at the primary time point of 48 weeks. […] Otherwise, the endpoint with the smaller p-value of the two was considered statistically significant, if statistically significant at the 0.05 (two-sided) level of significance.

[5] = system: patients with at least one eye with dry AMD and GA; experiment: Phase 2 trial (NCT03891875): low-luminance best-corrected visual acuity (LL BCVA); assay type: in vivo, human; settings: week 48
Procedure: as §1
Patients—Key inclusion criteria. The original protocol specified that adults ≥55 years of age with one eye with dry AMD and GA were eligible for study entry. However, a subsequent amendment to the protocol limited inclusion to patients with noncentral GA. Noncentral GA and area was determined primarily by fundus autofluorescence (FAF) and all noncentral GA lesions were required to be ≥150 μm from foveal center with preserved outer retinal structural details, as confirmed by the central reading center (BIRC, Boston MA). Noncentral GA was required to be ≥0.05 mm^2 and ≤10.16 mm^2 in size, and reside completely within the FAF 30- or 35-degree image. […] The fellow eye was allowed to have AMD with or without GA, MNV, central GA, or no pathology.
as §2
Statistical analysis. Safety and efficacy variables were summarized descriptively. […] Patients were analyzed according to the actual treatment received. […]

[6] = clinical study, rate of growth of photoreceptor loss
[7] = Table 1, 117 randomized to elamipretide

Cc1cc(O)cc(C)c1C[C@H](NC(=O)[C@H](N)CCCNC(=N)N)C(=O)N[C@@H](CCCCN)C(=O)N[C@@H](Cc1ccccc1)C(N)=O (stereo in doubt) [elamipretide, H-D-Arg-2′,6′Dmt-Lys-Phe-NH2]
mean rate of macular photoreceptor loss compared with the untreated group ([1]; FIG. 3, MMRM, weeks 12, 24, 36 and 48): reduced mean rate of macular photoreceptor loss | decrease of the growth of photoreceptor loss ([1]; FIG. 3, change in tEZa from baseline, weeks 12 to 48, 40 mg subcutaneous once daily vs untreated): about 50% | clinical benefit in subjects who commenced therapy before developing measurable geographic atrophy (GA) [1, 6]: experienced clinical benefit | clinical benefit in subjects with non-central GA [1, 6]: experienced clinical benefit | water solubility [2]: highly water soluble | Early discontinuation: Adverse event [3, 7]: 10 (8.5) n (%) | Early discontinuation: Withdrawal by subject [3, 7]: 20 (17.1) n (%) | Subjects leaving study early [3, 7]: 34 (29.1) n (%) | patients who discontinued the study early (percent) ([3]; of n=117 randomized): 29% | reduction in progression of pEZa relative to placebo ([4]; LS mean change baseline to week 48): 47% | reduction in progression of tEZa relative to placebo ([4]; LS mean change baseline to week 48, macular percentage of tEZa): 43% | progression of GA area relative to the baseline boundary of total EZ attenuation ([4]; during the trial, elamipretide treated arm): GA area did not progress to the baseline boundary of total EZ attenuation | growth of partial EZ attenuation area during the trial ([4]; elamipretide arm, placebo arm 35%): 14% | growth of total EZ attenuation area (mm^2) during the trial ([4]; elamipretide arm, placebo arm 52%): 24% | rate of progression of the EZ-GA gap ([4]; post-hoc analysis): slower rate of progression | LS mean change from baseline to week 48 for macular percentage of tEZa (EZ-RPE thickness of 0 μm) ([4]; week 48, 40 mg subcutaneous once daily, P=0.0034 vs placebo): 3.69% | LS mean change from baseline to week 48 for pEZa (EZ-RPE thickness≤20 μm) ([4]; week 48, 40 mg subcutaneous once daily, P=0.0040 vs placebo): 4.10% | least-squares (LS) mean changes from baseline in LL BCVA ([5]; primary endpoint, 40 mg subcutaneous once daily, mITT, P=0.49 vs placebo): −3.0 letters | patients experiencing a ≥2-line gain (≥10 letter) in LL BCVA ([5]; 40 mg subcutaneous once daily, P=0.0404 vs placebo): 14.6% | percentage of patients experiencing a >1-line gain ([5]; LL BCVA, vs placebo): higher compared to placebo

Reference: patent publication US20250302909A1, “METHODS FOR THE TREATMENT OF AGE-RELATED MACULAR DEGENERATION” (Stealth BioTherapeutics Inc., priority 2024, published 2025)
